Reference: patent publication US20050119240A1, “1-methyl-20-epi-vitamin d derivative” (priority 2000, published 2005)

What follows are compounds tested against T1, Bovine thymus 1α,25-dihydroxyvitamin D3 receptor (VDR) (Bos taurus, UniProt Q28037). Conditions: relative value with that of 1α,25-dihydroxyvitamin D3 taken as 100; [3H]-1α,25-dihydroxyvitamin D3 0.1 nM, incubation overnight at 4° C.
T1 sequence (Q28037 1-426): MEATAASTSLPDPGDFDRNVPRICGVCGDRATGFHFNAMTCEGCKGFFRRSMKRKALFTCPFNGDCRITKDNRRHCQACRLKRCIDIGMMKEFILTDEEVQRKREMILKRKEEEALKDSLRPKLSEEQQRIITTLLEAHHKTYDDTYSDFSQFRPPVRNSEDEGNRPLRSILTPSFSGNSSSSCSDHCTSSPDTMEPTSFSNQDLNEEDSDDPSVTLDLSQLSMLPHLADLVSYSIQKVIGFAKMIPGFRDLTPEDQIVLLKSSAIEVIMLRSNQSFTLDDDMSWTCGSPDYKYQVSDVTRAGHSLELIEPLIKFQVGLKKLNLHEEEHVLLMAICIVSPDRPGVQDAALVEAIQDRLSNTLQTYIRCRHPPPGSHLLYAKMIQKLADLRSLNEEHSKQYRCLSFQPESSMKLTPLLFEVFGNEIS
`C=C1/C(=C\C=C2/CCC[C@]3(C)[C@@H]([C@@H](C)CCCC(C)(C)O)CC[C@@H]23)C[C@H](O)C[C@]1(C)O` [Compound 4, (5Z,7E)-(1S,3S,20S)-1Methyl-9,10-seco-5,7,10(19)-cholestatriene-1,3,25-triol] was tested, and the VDR binding properties was 1. In the case of `C=C1/C(=C\C=C2/CCC[C@@]3(C)C2CCC3[C@@H](C)CCCC(C)(C)O)C[C@@H](O)C[C@]1(C)O` (stereo partly drawn) [Compound 6, (5Z,7E)-(1S,3R,20S)-1-Methyl-9,10-seco-5,7,10(19)-cholestatriene-1,3,25-triol], the VDR binding properties is reported as 1. Compound `C=C1C(=CC=C2CCCC3(C)C2CCC3C(C)CCCC(C)(C)O)CC(O)CC1(C)O` [Compound 9, (5Z,7E)-(1R,3R,20S)-1-Methyl-9,10-seco-5,7,10(19)-cholestatriene-1,3,25-triol] has a VDR binding properties of 0.017. Work on `C=C1/C(=C\C=C2/CCC[C@@]3(C)C2CCC3[C@@H](C)CCCC(C)(C)O)C[C@H](O)C[C@@]1(C)O` (stereo partly drawn) [Compound 11, (5Z,7E)-(1R,3S,20S)-1-Methyl-9,10-seco-5,7,10(19)-cholestatriene-1,3,25-triol] yielded a VDR binding properties of 0.004.
